Values of other authors as cited in patent US20250261646A1, “SOLID COMPOSITION AS A SOLUBLE PRECURSOR OF AN ECO-FRIENDLY AND EFFECTIVE METAL-BASED BIOCIDE, PROCESS AND USE THEREOF” (BIOREM ENGINEERING SA, priority 2022, published 2025).

Conditions: for comparison

Question: For `[O]=[Zn]` [ZnO, zinc(II) oxide], which solubility is on record?
Answer: Its solubility is 4 µg/mL.
